Data reported in patent US7655430B2, “Method for analyzing residual agricultural chemical” (priority 2004, dated 2010).

Key:
choline esterase [1] = conditions: background description, no test described; cited from earlier work
choline esterase [2] = test: choline esterase inhibition, inhibitory signal from hydrogen peroxide generated (choline esterase/choline oxidase, acetylcholine substrate); type: biochemical
Description: In this Example, it was intended to confirm the derivatization of carbosulfan (see FIG. 2). Carbosulfan was converted into carbofuran by adding a reduced glutathione (GSH), to a concentration of 5×10^−5M, and a glutathione-transferase (GST), to a concentration of 0.025 U/mL, to 10 mL of a 0.02M Mes buffer solution (pH 6.0) (2-morpholino-ethane sulfonic acid) containing carbosulfan in a variety of concentrations and then allowing each resulting reaction system to stand over at least 30 minutes.
Then, 10 mL of a solution containing 0.1M phosphate buffer solution (pH 7.6) and 0.2M potassium chloride was added to the foregoing solution which had been allowed to stand, to thus obtain a solution having a volume of 20 mL. […]
After bringing these components into contact with one another by allowing them to stand, acetylcholine was added to a concentration of 2×10^−4M to the foregoing solution and then the amount of hydrogen peroxide generated was determined to thus inspect the solution for the activity to inhibit the choline esterase activity. The same solution free of a carbosulfan was used as a control and this was compared with the solutions, which included carbosulfan in a variety of concentrations, based on the detected inhibitory signals corresponding to the quantities of the resulting hydrogen peroxide. […]

| SMILES | ability to inhibit choline esterase (choline esterase [1]) | calibration curve of inhibitory signal (FIG. 3) (choline esterase [2]; after conversion with reduced glutathione (5×10^−5M) and glutathione transferase (0.025 U/mL), at least 30 minutes) | inhibitory activity (inhibitory signal, calibration curve FIG. 3) (choline esterase [2]; reference material free of conversion with reduced glutathione and glutathione transferase) |
| --- | --- | --- | --- |
| CNC(=O)Oc1cccc2c1OC(C)(C)C2 [carbofuran] | strong activity of inhibiting choline esterase activity |  |  |
| CCCCN(CCCC)SN(C)C(=O)Oc1cccc2c1OC(C)(C)C2 [carbosulfan] |  | almost identical to that observed for the reference material of carbofuran | only a weak inhibitory activity |
